Measurements: US20020119891A1, “Integrated methods for control of aquatic weeds” (priority 2001, published 2002)
Values joined by “and” are separate entries in the source; they are usually repeats but may differ in a detail not shown here. Identical values can stand only once.

Tests used:
[1] = test system: Eurasian watermilfoil; assay: Field treatment of a lake with fluridone; assay type: in vivo
Source text: (§1) Preferred methods of the present invention also involve plant biochemical testing conducted during the treatment. Thus, during the period in which a fluridone level is being maintained in the body of water under treatment, aquatic weed samples are obtained from the water body. This may involve, for example, collection of growing apical meristems from selected sites in the water body, preferably along with matched water samples from the same sites. Again, the sample sites can be logged using GPS or another suitable system to assist in future sampling and reference.
The aquatic weed plant samples can then be assessed to determine the effect of the maintained level of fluridone on the plants. To this end, the samples are first thoroughly washed and weighed. In a typical treatment, 6 to 12 samples per site will be collected. Similar to the discussions above, standard methods are then used to assay the level of pigments such as B-carotene, chlorophyll, and/or other relevant substances such as phytoene, in the tissue. […] The levels can be measured as discussed above using any suitable method such as spectrophotometry or fluorometry and appropriate standard curves. The measured values can then be utilized to determine whether any additional applications of fluridone or other adjustments are necessary to bring concentrations to levels that will be phytotoxic to the local aquatic weed population. […]

[2] = test system: Eurasian watermilfoil; assay: Pretreatment aquatic weed bioassay: sampled plants exposed to fluridone, pigments assayed; assay type: in vivo
Source text: (§2) As disclosed above, fluridone treatments of the invention are integrated with assays to determine the efficacy of fluridone on the local plant population in the body of water under treatment, and desirably also with assays to determine the concentration of fluridone existing during the treatment program. For example, in the present invention, an aquatic weed bioassay can be used to determine the pre-treatment susceptibility of a target plant population to fluridone. Such an assay may for instance involve the collection of meristematic stem tissue or vegetative propagules at selected sites within a body of water to be treated. The sites of collection may be logged, for instance using coordinates defined by the global positioning satellite (GPS) system. […]
(§3) At the completion of the growth period, all new growth from the plants can be excised from the original plant tissue. […] After the extraction, the extracted sample is assayed to quantitate the levels of pigments, for example chlorophyll and/or β-carotene. […] For example, spectrophotometric absorbance measurements for chlorophyll may be taken at 645 and/or 662 nm; for β-carotene may be taken at 445 nm; and for phytoene may be taken at 287 and/or 347 nm. These measured values may be compared to control data (e.g. including curves generated using samples of known concentration) to determine the level of these substances in the samples. […]

[3] = test system: hydrilla; assay: Field treatment of a water body with plant biochemical and water residue monitoring; assay type: in vivo, Hydrilla verticillata
Source text: as §1
The aquatic weed plant samples can then be assessed to determine the effect of the maintained level of fluridone on the plants. To this end, the samples are first thoroughly washed and weighed. In a typical treatment, 6 to 12 samples per site will be collected. Similar to the discussions above, standard methods are then used to assay the level of pigments such as B-carotene, chlorophyll, and/or other relevant substances such as phytoene, in the tissue. […] The levels can be measured as discussed above using any suitable method such as spectrophotometry or fluorometry and appropriate standard curves. The measured values can then be utilized to determine whether any additional applications of fluridone or other adjustments are necessary to bring concentrations to levels that will be phytotoxic to the local aquatic weed population.
The biochemical assays discussed above, taken during treatment, are preferably used in conjunction with assays of water samples simultaneously taken, to determine the concentration of fluridone in the water body. […] The combination of measured fluridone concentration along with measured effect on plant health provides a particularly powerful method for the management of aquatic weeds in water bodies.
The Spring Creek Arm of Lake Seminole (5000 acres) was treated in May 2000 using a drip system that added fluridone based on flow rates in the river. […] Plant response to the treatment was monitored and threshold water concentrations were determined. […]

[4] = test system: aquatic weeds; conditions: cited from earlier work
[5] = test system: hydrilla; assay: Pretreatment aquatic weed bioassay: apical tips grown in fluridone-treated medium, pigments of new growth assayed; assay type: in vivo, Hydrilla verticillata
Source text: as §2, §3

1-methyl-3phenyl-5-3-(trifluoromethyl)phenyl-4(1H)-pyridinone [fluridone]
weed control result of field treatment ([1]; Lake McKinney, Minnesota, treated late summer 1999, assessed end of following summer): could no longer be found in the lake
weed control result of previous field applications ([1]; Wolverine Lake, two applications at 5 and 6 ppb in the last 3 years): unsatisfactory results
threshold concentration of fluridone ([2]; Example 3: Eurasian watermilfoil from Wolverine Lake, Michigan, 0, 3, 6, 9, 12, 15 ppb): 6 ppb and 9 ppb
plant response below threshold ([2]; Wolverine Lake Eurasian watermilfoil, 3 ppb): rapid recovery of the plants
weed control result of earlier treatment ([3]; Lake Eva, 1999 treatment): very poor control
lake concentration relative to control threshold (pigment assay) ([3]; Lake Eva, Central Florida, treated April 2000, target rate 15 ppb): below thresholds required to provide control
plant response at downstream sites (plant sampling) ([3]; Spring Creek Arm of Lake Seminole, drip system treatment, May 2000): lack of impact at several downstream sites
susceptible concentration, less sensitive species ([4]; other species, only higher concentrations): 150 ppb
susceptible concentration, more sensitive species ([4]; some species, as low as): about 5 ppb
threshold concentration of fluridone (pigment concentrations in new growth) ([5]; Example 1: hydrilla from 2500-acre Florida lake, 0, 3, 6, 12, 24 ppb, 12-day growth, no enhancement at 12 and 24 ppb): 6 ppb
lowest rate hydrilla is susceptible to (pretreatment assay) ([5]; Spring Creek Arm of Lake Seminole hydrilla): 5 ppb
